Laboratory results taken from ChEMBL document CHEMBL1201862, “PubChem BioAssay data set” (2004).
The source made the active and inactive calls.

Legend:
Vero [1] = assay: inhibition of WNV-induced cytopathic effect – cell-based, CPE readout (AID 1621); assay type: functional; conditions: Chlorocebus sabaeus
Vero [2] = assay: Vero 76 cell viability after compound exposure – Vero 76 cells, synthesized analogs, cytotoxicity control for West Nile virus antiviral project, SAR follow-up (AID 2414); assay type: functional; conditions: Chlorocebus sabaeus
Vero [3] = assay: antiviral protection of cells from WNV – synthesized analogs, SAR follow-up (AID 2238); assay type: functional, cell-based; conditions: Chlorocebus sabaeus
Vero [4] = assay: antiviral activity against WNV, CPE read-out – cell-based (AID 2419); assay type: functional; conditions: Chlorocebus sabaeus
Vero [5] = assay: Vero cell viability after compound exposure – synthesized analogs, set II, cytotoxicity control for West Nile virus antiviral project, SAR follow-up (AID 2402); assay type: functional; conditions: Chlorocebus sabaeus
Vero [6] = assay: host cell viability loss, Vero E6 – synthesized analogs, cytotoxicity control for West Nile virus antiviral project, SAR follow-up (AID 2244); assay type: functional; conditions: Chlorocebus sabaeus
Coagulation factor XII = biological target: T1, Coagulation factor XII (Homo sapiens, UniProt P00748); assay: activated coagulation factor XII inhibitor potency, concentration-effect curve, cell-free (AID 716); assay type: functional
T1 sequence (P00748 whole entry): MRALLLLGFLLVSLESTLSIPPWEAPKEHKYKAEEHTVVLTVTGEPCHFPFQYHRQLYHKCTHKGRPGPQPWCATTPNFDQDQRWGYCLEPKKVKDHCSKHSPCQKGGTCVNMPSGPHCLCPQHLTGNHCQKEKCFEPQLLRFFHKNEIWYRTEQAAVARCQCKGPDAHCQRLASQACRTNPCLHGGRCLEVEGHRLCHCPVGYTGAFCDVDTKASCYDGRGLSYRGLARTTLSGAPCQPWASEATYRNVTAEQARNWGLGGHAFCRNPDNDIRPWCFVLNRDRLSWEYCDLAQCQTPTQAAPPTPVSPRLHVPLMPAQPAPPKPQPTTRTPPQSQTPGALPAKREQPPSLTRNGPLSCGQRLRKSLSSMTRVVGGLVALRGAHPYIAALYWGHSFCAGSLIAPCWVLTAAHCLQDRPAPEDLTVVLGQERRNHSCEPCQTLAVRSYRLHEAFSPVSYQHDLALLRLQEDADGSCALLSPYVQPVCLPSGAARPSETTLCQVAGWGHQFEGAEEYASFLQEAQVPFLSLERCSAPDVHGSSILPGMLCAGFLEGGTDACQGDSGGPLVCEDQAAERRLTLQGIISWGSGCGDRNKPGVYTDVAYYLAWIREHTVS

[7] = biological target: E3 ubiquitin-protein ligase Mdm2/Protein Mdm4 (Homo sapiens, UniProt O15151+Q00987); assay: disruption of Mdm2/MdmX protein binding – luminescence detection, dose response (AID 504593); assay type: functional
E3 ubiquitin-protein ligase Mdm2/Protein Mdm4, sequence (Q00987 whole entry): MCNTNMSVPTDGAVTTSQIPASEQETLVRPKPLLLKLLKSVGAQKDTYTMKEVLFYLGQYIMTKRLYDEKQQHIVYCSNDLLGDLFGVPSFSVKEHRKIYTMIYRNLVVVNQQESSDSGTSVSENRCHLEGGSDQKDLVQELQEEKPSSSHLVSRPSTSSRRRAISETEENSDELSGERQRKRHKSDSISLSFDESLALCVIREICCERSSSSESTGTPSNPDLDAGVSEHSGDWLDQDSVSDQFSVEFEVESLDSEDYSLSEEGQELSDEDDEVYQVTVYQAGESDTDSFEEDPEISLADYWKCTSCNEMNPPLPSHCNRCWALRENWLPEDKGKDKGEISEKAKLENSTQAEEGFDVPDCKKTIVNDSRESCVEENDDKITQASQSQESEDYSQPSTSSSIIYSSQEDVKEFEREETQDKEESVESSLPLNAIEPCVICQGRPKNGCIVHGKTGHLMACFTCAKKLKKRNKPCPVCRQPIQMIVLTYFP
E3 ubiquitin-protein ligase Mdm2/Protein Mdm4, sequence (O15151 whole entry): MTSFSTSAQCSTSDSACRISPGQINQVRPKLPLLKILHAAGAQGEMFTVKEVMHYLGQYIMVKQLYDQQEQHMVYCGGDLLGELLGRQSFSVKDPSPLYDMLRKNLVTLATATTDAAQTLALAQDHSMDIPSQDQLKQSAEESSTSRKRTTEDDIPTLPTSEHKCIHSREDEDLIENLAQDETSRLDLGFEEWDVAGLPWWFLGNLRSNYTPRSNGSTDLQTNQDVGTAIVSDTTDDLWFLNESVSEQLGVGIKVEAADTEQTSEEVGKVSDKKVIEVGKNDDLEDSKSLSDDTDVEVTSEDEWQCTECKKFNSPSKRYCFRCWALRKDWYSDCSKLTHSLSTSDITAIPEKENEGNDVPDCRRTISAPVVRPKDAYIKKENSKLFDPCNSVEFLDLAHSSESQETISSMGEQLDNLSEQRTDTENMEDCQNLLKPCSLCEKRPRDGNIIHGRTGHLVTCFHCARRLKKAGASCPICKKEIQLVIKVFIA

H9c2 = assay: cells; assay type: functional, cell-based; conditions: Rattus norvegicus, H9c2, Myocardium;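 further: confirmatory concentration-response retest of ultra-high-throughput screening hits for modulation of myocardial damage; cell death induced by hydrogen peroxide oxidative stress; compound pretreatment for 60 min then peroxide exposure for 2 h; potency is for protecting the cells against peroxide damage rather than for killing them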
[8] = biological target: T2, Alkaline phosphatase, tissue-nonspecific isozyme (Homo sapiens, UniProt P05186); assay: potency against alkaline phosphatase TNAP – biochemical, luminescent, dose response, SAR follow-up (AID 1056)
T2 sequence (P05186 whole entry): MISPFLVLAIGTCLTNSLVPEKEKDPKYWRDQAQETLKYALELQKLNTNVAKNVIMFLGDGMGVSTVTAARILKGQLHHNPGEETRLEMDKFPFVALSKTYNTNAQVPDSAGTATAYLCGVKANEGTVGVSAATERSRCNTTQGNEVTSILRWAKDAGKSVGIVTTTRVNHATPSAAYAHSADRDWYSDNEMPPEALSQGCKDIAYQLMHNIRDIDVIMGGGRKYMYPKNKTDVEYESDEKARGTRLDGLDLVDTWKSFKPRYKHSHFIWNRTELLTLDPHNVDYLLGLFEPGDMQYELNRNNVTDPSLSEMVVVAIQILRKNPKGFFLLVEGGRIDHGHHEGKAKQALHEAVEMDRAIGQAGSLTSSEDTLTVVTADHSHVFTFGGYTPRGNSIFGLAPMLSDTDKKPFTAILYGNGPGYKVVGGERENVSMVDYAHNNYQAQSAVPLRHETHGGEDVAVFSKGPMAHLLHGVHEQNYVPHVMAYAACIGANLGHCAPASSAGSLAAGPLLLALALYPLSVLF

[9] = biological target: Alkaline phosphatase, placental type (Homo sapiens, UniProt P05187); assay: human placental alkaline phosphatase inhibition – biochemical, luminescence, confirmation (AID 1512); assay type: functional
Alkaline phosphatase, placental type, sequence (P05187 whole entry): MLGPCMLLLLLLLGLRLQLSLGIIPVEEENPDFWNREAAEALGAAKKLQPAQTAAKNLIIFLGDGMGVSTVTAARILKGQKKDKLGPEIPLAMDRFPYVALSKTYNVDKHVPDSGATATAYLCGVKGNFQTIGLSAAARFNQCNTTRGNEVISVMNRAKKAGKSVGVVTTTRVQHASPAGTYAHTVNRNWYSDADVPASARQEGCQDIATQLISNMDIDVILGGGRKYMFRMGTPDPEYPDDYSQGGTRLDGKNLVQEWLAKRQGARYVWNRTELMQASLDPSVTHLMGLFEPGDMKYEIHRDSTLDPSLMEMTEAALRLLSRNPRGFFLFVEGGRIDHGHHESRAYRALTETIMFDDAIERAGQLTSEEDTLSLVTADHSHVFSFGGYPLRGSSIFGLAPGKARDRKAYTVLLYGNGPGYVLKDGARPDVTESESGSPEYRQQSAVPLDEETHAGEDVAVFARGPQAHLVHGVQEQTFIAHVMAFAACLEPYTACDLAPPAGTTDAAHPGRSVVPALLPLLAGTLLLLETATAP

[10] = biological target: T3, Dual specificity protein phosphatase 3 (Homo sapiens, UniProt P51452); assay: SAR VHR1 absorbance Assay for In Vitro dose response studies. [Related pubchem assays (depositor defined):AID1654, AID1661, AID1878, AID1992, AID2004]
T3 sequence (P51452 whole entry): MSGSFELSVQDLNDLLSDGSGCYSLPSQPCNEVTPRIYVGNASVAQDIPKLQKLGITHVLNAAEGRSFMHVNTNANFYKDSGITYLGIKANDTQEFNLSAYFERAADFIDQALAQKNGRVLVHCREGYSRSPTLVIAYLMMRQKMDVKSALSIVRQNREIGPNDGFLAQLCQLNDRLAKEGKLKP

[11] = biological target: T3, Dual specificity protein phosphatase 3; assay: SAR VHR1 Fluorescent Assay for In Vitro dose response studies Set 2. [Related pubchem assays (depositor defined):AID1654, AID1661, AID1878]; assay type: functional
[12] = biological target: T3, Dual specificity protein phosphatase 3; assay: SAR VHR1 Fluorescent Assay for In Vitro dose response studies. [Related pubchem assays (depositor defined):AID1654, AID1661, AID1878, AID1992, AID2004, AID2070, AID2085]; assay type: functional
[13] = biological target: T4, Tyrosine-protein phosphatase non-receptor type 7 (Homo sapiens, UniProt P35236); assay: redox-active compounds inhibiting HePTP phosphatase – biochemical, fluorescence, mechanism study (AID 2068); assay type: functional
T4 sequence (P35236 whole entry): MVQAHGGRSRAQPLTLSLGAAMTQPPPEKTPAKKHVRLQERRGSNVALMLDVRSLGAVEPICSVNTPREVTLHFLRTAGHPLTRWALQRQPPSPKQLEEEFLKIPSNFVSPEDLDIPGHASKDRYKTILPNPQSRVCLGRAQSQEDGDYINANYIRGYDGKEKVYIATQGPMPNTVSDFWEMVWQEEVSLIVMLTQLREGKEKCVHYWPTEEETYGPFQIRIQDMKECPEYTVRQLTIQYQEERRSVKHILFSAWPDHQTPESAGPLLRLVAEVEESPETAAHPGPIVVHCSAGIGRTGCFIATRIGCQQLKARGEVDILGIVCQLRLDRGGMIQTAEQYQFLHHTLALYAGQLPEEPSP

[14] = biological target: Dual specificity protein phosphatase 6 (Rattus norvegicus, UniProt Q64346); assay type: functional;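 further: confirmatory in vitro dose-response testing of MKP-3 inhibition; recombinant His-tagged MKP-3 made in E. coli BL21 with OMFP substrate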
Dual specificity protein phosphatase 6, sequence (Q64346 whole entry): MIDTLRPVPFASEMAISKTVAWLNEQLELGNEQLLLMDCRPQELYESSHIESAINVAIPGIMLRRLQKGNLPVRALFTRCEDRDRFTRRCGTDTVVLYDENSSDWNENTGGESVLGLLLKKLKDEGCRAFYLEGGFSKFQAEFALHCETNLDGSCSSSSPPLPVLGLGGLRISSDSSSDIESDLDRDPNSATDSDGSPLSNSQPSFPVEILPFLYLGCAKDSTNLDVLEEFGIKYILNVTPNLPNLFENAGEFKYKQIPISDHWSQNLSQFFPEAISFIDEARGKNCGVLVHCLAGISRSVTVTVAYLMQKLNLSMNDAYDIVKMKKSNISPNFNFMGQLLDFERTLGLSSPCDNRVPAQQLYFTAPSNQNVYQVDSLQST

In the case of `O=C(CSc1nc2ccccc2c(=O)n1-c1ccc(F)cc1F)Nc1ccc2c(c1)CCC2`, the IC50 (Vero [1]) is reported as 11.8 µM (active), the CC50 (Vero [2]) is reported as > 16.7 µM (active) and the IC50 (Vero [3]) is reported as 45 µM (active). For the same compound, the IC50 (Vero [4]) was 173 µM (active), the CC50 (Vero [5]) was > 200 µM (active) and the CC50 (Vero [6]) was > 80 µM (active).

`CC(C)CC(c1nnnn1Cc1ccco1)N1CCN(C2CCCC2)CC1` (stereo unspecified) was tested, and the IC50 (Coagulation factor XII) was > 50 µM (inactive).

`CC(=O)c1ccc(-c2ccc(C(=O)Nc3nc(-c4ccccn4)cs3)o2)cc1` was tested, and the IC50 [7] was 3.97 µM (active) and the IC50 (H9c2) was > 79 µM (inactive).

For `O=C(CSc1nnc(-c2ccco2)[nH]1)c1ccc(O)c(O)c1`, the IC50 [8] was 21.7 µM (active) and the IC50 [9] was 12.2 µM (active).

For `CN(C)S(=O)(=O)c1cc(C(=O)NC2CCSc3ccccc32)ccc1Cl` (stereo unspecified), the IC50 [10] was > 100 µM (inactive), the IC50 [11] was > 100 µM (inactive) and the IC50 [12] was > 100 µM (inactive). For the same compound, the IC50 [13] was > 100 µM (inactive) and the IC50 [14] was > 100 µM (inactive).
